Results: article PMC4467147, “Identification of epipolythiodioxopiperazines HDN-1 and chaetocin as novel inhibitor of heat shock protein 90” (Oncotarget, 2015)
Like-named read-outs stand apart in the source and are kept apart here.

How the values were obtained:
[1] = target: C-terminus of ATP binding site (660–680 aa) of Hsp90α; design: method as in PMID 11751878; conditions: read-out: binding affinity to C-terminus of ATP binding site of Hsp90α; cited from earlier work
full length Hsp90α = target: T1, full length Hsp90α (Homo sapiens, UniProt P07900); assay: SPR binding to full-length Hsp90α immobilized on sensor chip; conditions: 25°C, 1:1 Langmuir model, read-out: dissociation constant (Kd) for full-length Hsp90α
T1 construct: For full length Hsp90α, Hsp90α was coupled to the surface of a GLH sensor chip using amine coupling
Protocol: (§1) SPR analysis was carried out with a ProteOn XPR36 instrument (Bio-Rad) or ForteBio's Octet RED96 to determine binding of various molecules to full length Hsp90α or C-terminal Hsp90α. For full length Hsp90α, Hsp90α was coupled to the surface of a GLH sensor chip using amine coupling. The coupling has been performed according to the manufacturer's instructions. Binding experiments were performed with multiple concentrations of HDN-1 and chaetocin running over the surface of the chip at 25°C, at a constant flow rate of 30 μl/min in PBS-T (10 mM Phosphate, 150 mM NaCl, pH 7.4 and 0.005% Tween20 [v/v]). The sensor chip surface was regenerated using 0.85% H3PO4. Changes in mass due to the binding response were recorded as resonance units (RU). To obtain the dissociation constant (Kd), these responses were fit to a 1:1 Langmuir binding model by nonlinear regression using the BiaEvaluation 4.1 software program. For interplay of HDN-1 with other molecules, 50 μM 17-AAG, 50 μM novobiocin, or 100 μM ATP was injected into Hsp90α-immobilized chip and the RU values were recorded in succession for indicated time, then these compounds were replaced by 50 μM HDN-1, and RU values were recorded unceasingly. Similar experiments were conversely performed and RU values were recorded. […] Binding of samples (31.25–500 μM) to coated and uncoated reference sensors was measured over 60 s. […]

Hsp90 client proteins = assay: Western blotting of Hsp90 client proteins and Hsp70 in NSCLC cells; format: cell-based, human; conditions: for effect on level of SUV39H1: 24 h; for effect on Hsp90 client protein levels (EGFR, Akt, Cyclin D1 etc.): NSCLC cells
Protocol: Cells were incubated with HDN-1 at indicated concentrations and time, then washed with PBS twice, disrupted on ice for 30 min in loading buffer, and boiled for 10 min. Protein concentration was determined with BCA reagent. Equal amounts of protein in cell lysates were separated by SDS-PAGE, transferred to membranes, immunoblotted with indicated primary and secondary antibodies, and detected by chemiluminescence with the enhanced chemiluminescence detection reagents (PIERCE). The antibodies of following proteins were used: EGFR, phosphorylated EGFR (Tyr1068), Akt, phosphorylated Akt (Ser473), MAPK, phosphorylated MAPK (Thr202/Tyr204), ubiquitin, Hsp70, β-Actin; Abl, Stat3, phosphorylated Stat3 (Ser727), Raf-1, cyclin D1. For immunoprecipitation assay, cell lysate protein was incubated overnight at 4°C with the designated antibody and protein G-Sepharose (Amersham Biosciences) was added overnight while rocking. Precipitates were washed three times with lysis buffer and once with PBS, resuspended in 2 × loading buffer, and resolved by SDS-PAGE followed by immunoblot analysis.

H1975 cells [2] = assay: MTT cell viability assay, H1975; format: cell-based; conditions: Homo sapiens, NCI-H1975, H1975, 72 h, read-out: IC50 cell proliferation
Protocol: (§2) A modified tetrazolium salt assay was used to measure the inhibition of cancer cell growth. Cancer cells were plated into a 96-well microtiter plate containing 0.1 ml of growth media/well for 24 h, then were incubated with HDN-1 at indicated concentrations dissolved in DMSO for 72 h. 3-(4,5-Dimethylthiazol-2-yl)-2,5- diphenyltetrazoliumbromide (MTT) was added to each well of a 96-well plate. After 4 h incubation, the formazan product was dissolved and quantitated spectrophotometrically at a wavelength of 560 nm. Percent viability of each sample was calculated from the A560 values as follows: % viability = (A560 nm sample / A560 nm DMSO-treated cells × 100). The IC50 was defined as the concentration that gave rise to 50% inhibition of cell viability.

Hsp90α = target: T2, Hsp90α (Homo sapiens, UniProt P07900); assay: Fluorescence polarization competitive assay, displacement of FITC-GA from Hsp90α; conditions: 200 nM FITC-GA, 30 nM Hsp90α; read-out: IC50, effect on the binding of GA to Hsp90
T2 construct: For full length Hsp90α, Hsp90α was coupled to the surface of a GLH sensor chip using amine coupling
Protocol: Fluorescence polarization assays were performed under the following conditions: each 96-well plate contained 200 nM FITC-GA, Hsp90α (30 nM), and tested inhibitor (initial stock in DMSO) in a final volume of 100 μl. For each assay, background wells (buffer only), tracer controls (free, FITC-GA only), and bound GA controls (fluorescent GA in the presence of Hsp90) were included on each assay plate. The fraction of tracer bound to Hsp90 was correlated to the mP value and plotted against log10 values of competitor concentrations. The HDN-1 and 17-AAG concentrations at which 50% of bound GA was displaced was obtained by fitting the data. Fluorescence intensity measurements were obtained using a SpectraMax M5 (Molecular Devices, Sunnyvale, CA). The excitation and emission wavelengths were 485 nm and 530 nm, respectively.

H1975 cells [3] = assay: Drug combination study HDN-1 and 17-AAG, MTT assay, H1975; format: cell-based, human; conditions: H1975, 72 h
Protocol: as §2
H1975 cell were seeded in triplicate in 96-well plates and treated with HDN-1 or 17-AAG alone or with the combination of HDN-1 and 17-AAG at the indicated doses. MTT assays were performed after 72 h of treatment. The Q (value) was calculated according to Jin's formula: Q = Ea+b/(Ea+Eb−Ea × Eb). Ea+b represented the inhibition rate of drug combination, Ea and Eb represented the inhibition rate of drug A and B alone, respectively. Q (value) = 0.85–1.15 stands for additivity, Q (value) > 1.15–2.0 stands for synergism, and Q (value) < 0.85–0.55 stands for antagonism.

HCC827 cells = assay: MTT cell viability assay, HCC827; format: cell-based, human; conditions: HCC827, 72 h, read-out: IC50 cell proliferation
Protocol: as §2

A549 cells = assay: MTT cell viability assay, A549; format: cell-based, human; conditions: A549, 72 h, read-out: IC50 cell proliferation
Protocol: as §2

[4] = target: T3, C-terminal Hsp90 fragment (535–732aa) of human Hsp90α (Homo sapiens, UniProt P07900); assay: ForteBio Octet binding to biotinylated C-terminal Hsp90α; conditions: Octet RED96, read-out: Kd for C-terminus of Hsp90α
T3 construct: recombinant C-terminal Hsp90 fragment (535–732aa) of human Hsp90α
Protocol: as §1

Hsp90α ATPase = Hsp90α ATPase (Homo sapiens, UniProt P07900); assay: Hsp90α ATPase activity; format: biochemical; conditions: data not shown

## CO[C@@H]1[C@@H](OC(N)=O)[C@@H](O)[C@H](Oc2ccc3c(O)c(NC(=O)c4ccc(O)c(CC=C(C)C)c4)c(=O)oc3c2C)OC1(C)C [Novobiocin]
[1]
  Kd: ~3300 µM

## CN1C(=O)[C@@]23C[C@]4([C@]56C[C@@]78SS[C@@](CO)(C(=O)N7[C@H]5Nc5ccccc56)N(C)C8=O)c5ccccc5N[C@@H]4N2C(=O)[C@]1(CO)SS3 [chaetocin]
Full length Hsp90α
  Kd: 16.8 µM
Hsp90 client proteins; Western blotting
  effect on level of SUV39H1: decline
  effect on Hsp90 client protein levels (EGFR, Akt, Cyclin D1 etc.): degraded client proteins

## CN1C(=O)[C@]23SSS[C@@]1(CO)C(=O)N2[C@H]1Nc2ccccc2C1(C12c4ccccc4N[C@@H]1N1C(=O)[C@]4(CO)SS[C@]1(C(=O)N4C)[C@H]2O)[C@@H]3O (stereo partly shown) [HDN-1]
H1975 cells [2]
  IC50: 0.22 µM
Hsp90α
  IC50: > 10 µM
Full length Hsp90α
  Kd: 14.6 µM
Hsp90 client proteins; Western blotting
  effect on level of SUV39H1: decline
  effect on Hsp90 client protein levels (EGFR, Akt, Cyclin D1 etc.): reduced the expression levels
Hsp90 client proteins; H1975, HCC827, A549 cells, Western blotting
  effect on Hsp70 expression: did not obviously affect
Hsp90 client proteins; H1975 and A549 cells, CoCl2-induced hypoxia or 5% CO2 and 2% O2
  effect on HIF-1α: degraded
H1975 cells [3]; Homo sapiens, NCI-H1975, single agent 100 nM, read-out: Inhibition Rate Mean
  inhibition at 0.1 µM: 5.1%
H1975 cells [3]; Homo sapiens, NCI-H1975, single agent 200 nM, read-out: Inhibition Rate Mean
  inhibition at 0.2 µM: 37.1%
HCC827 cells
  IC50: 1.06 µM
HCC827 cells; Homo sapiens
  IC50: 0.54 µM
A549 cells
  IC50: 0.54 µM
A549 cells; Homo sapiens
  IC50: 1.06 µM
[4]
  Kd: 201 µM
Hsp90α ATPase
  effect on Hsp90α ATPase activity: no effect

## C=CCNC1=C2C[C@@H](C)C[C@H](OC)[C@H](O)[C@@H](C)/C=C(\C)[C@H](OC(N)=O)[C@@H](OC)/C=C\C=C(/C)C(=O)NC(=CC1=O)C2=O [17-AAG]
H1975 cells [3]; single agent 100 nM
  Inhibition Rate Mean: 0.070
H1975 cells [3]; single agent 200 nM
  Inhibition Rate Mean: 0.267
H1975 cells [3]; single agent 300 nM
  Inhibition Rate Mean: 0.393
